Test results: PubChem BioAssay AID256 (DTP/NCI, 2004)
Several values for one entry are separate records, joined by “and”; a condition that tells them apart may be missing. Equal values may be shown once. Inconclusive results and toxic doses are left out. Rule for the calls: active = survival T/C of 150% or more; inactive = T/C below 125% in these data. Non-standard residues stand in square brackets, D forms with d. Residues, ends and D or L forms follow the SMILES beside them. ξ: configuration not given here. *: point of attachment. Cbz = O=C(OCc1ccccc1)*; ξV = CC(C)C(N)C(=O)O; Dha = C=C(N)C(=O)O

Test system: CD2F1 mice, L1210 leukemia ip, survival T/C
Test: NCI In Vivo Anticancer Drug Screen. Data for tumor model L1210 Leukemia (intraperitoneal) in CD2F1 (CDF1) mice
Conditions: higher = longer survival
Outline: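 Each value reflects a quotient of treated over vehicle control outcomes in mice with a transplanted tumor.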

[1] = endpoint: mean survival time, dose: 100.0 mg/kg/injection, schedule: Q04DX002 (ip), vehicle: saline with Tween-80
[2] = endpoint: mean survival time, dose: 200.0 mg/kg/injection, schedule: Q04DX002 (ip), vehicle: saline with Tween-80
[3] = endpoint: mean survival time, dose: 400.0 mg/kg/injection, schedule: Q04DX002 (ip), vehicle: saline with Tween-80
[4] = endpoint: mean survival time, dose: 100.0 mg/kg/injection, schedule: Q01DX001 (ip), vehicle: Klucel (hydroxypropylcellulose) (HPC)
[5] = endpoint: mean survival time, dose: 200.0 mg/kg/injection, schedule: Q01DX001 (ip), vehicle: Klucel (hydroxypropylcellulose) (HPC)
[6] = endpoint: mean survival time, dose: 100.0 mg/kg/injection, schedule: Q01DX009 (ip), vehicle: saline with Tween-80
[7] = endpoint: mean survival time, dose: 100.0 mg/kg/injection, schedule: Q04DX003 (ip), vehicle: saline with Tween-80
[8] = endpoint: mean survival time, dose: 200.0 mg/kg/injection, schedule: Q01DX009 (ip), vehicle: saline with Tween-80
[9] = endpoint: mean survival time, dose: 200.0 mg/kg/injection, schedule: Q04DX003 (ip), vehicle: saline with Tween-80
[10] = endpoint: mean survival time, dose: 400.0 mg/kg/injection, schedule: Q01DX009 (ip), vehicle: saline with Tween-80
[11] = endpoint: mean survival time, dose: 400.0 mg/kg/injection, schedule: Q04DX003 (ip), vehicle: saline with Tween-80
[12] = endpoint: mean survival time, dose: 100.0 mg/kg/injection, schedule: Q04DX003 (ip), vehicle: saline
[13] = endpoint: mean survival time, dose: 200.0 mg/kg/injection, schedule: Q04DX003 (ip), vehicle: saline
[14] = endpoint: mean survival time, dose: 100.0 mg/kg/injection, schedule: Q01DX009 (ip), vehicle: Klucel (hydroxypropylcellulose) (HPC)
[15] = endpoint: mean survival time, dose: 200.0 mg/kg/injection, schedule: Q01DX009 (ip), vehicle: Klucel (hydroxypropylcellulose) (HPC)
[16] = endpoint: mean survival time, dose: 100.0 mg/kg/injection, schedule: Q01DX001 (ip), vehicle: saline with Tween-80
[17] = endpoint: mean survival time, dose: 200.0 mg/kg/injection, schedule: Q01DX001 (ip), vehicle: saline with Tween-80
[18] = endpoint: mean survival time, dose: 400.0 mg/kg/injection, schedule: Q01DX001 (ip), vehicle: saline with Tween-80
[19] = endpoint: mean survival time, dose: 50.0 mg/kg/injection, schedule: Q04DX002 (ip), vehicle: saline with Tween-80

Measured: T/C

Cc1cc(S(=O)(=O)F)cc(Cl)c1SC(=O)N(C)C
inactive: [1] 91 % of control | [2] 95 % of control | [3] 91 % of control

CC(=O)N(C)C
inactive: endpoint: mean survival time, dose: 62.0 mg/kg/injection, schedule: Q01DX Z (ip), vehicle: saline 92 % of control | endpoint: mean survival time, dose: 112.0 mg/kg/injection, schedule: Q01DX009 (ip), vehicle: saline 100 % of control | endpoint: mean survival time, dose: 122.5 mg/kg/injection, schedule: Q01DX009 (ip), vehicle: saline 91 % of control | endpoint: mean survival time, dose: 125.0 mg/kg/injection, schedule: Q01DX Z (ip), vehicle: saline 96 % of control | endpoint: mean survival time, dose: 225.0 mg/kg/injection, schedule: Q01DX009 (ip), vehicle: saline 95 % of control and 97 % of control | endpoint: mean survival time, dose: 250.0 mg/kg/injection, schedule: Q01DX Z (ip), vehicle: saline 92 % of control | endpoint: mean survival time, dose: 450.0 mg/kg/injection, schedule: Q01DX009 (ip), vehicle: saline 101 % of control and 103 % of control | endpoint: mean survival time, dose: 500.0 mg/kg/injection, schedule: Q01DX Z (ip), vehicle: saline 102 % of control | endpoint: mean survival time, dose: 900.0 mg/kg/injection, schedule: Q01DX009 (ip), vehicle: saline 89 % of control and 90 % of control | endpoint: mean survival time, dose: 1800.0 mg/kg/injection, schedule: Q01DX009 (ip), vehicle: saline 117 % of control and 112 % of control

Nc1nc2c(ncn2C2OC(CO)C(O)C2O)c(=O)[nH]1.Nc1nc2c(ncn2C2OC(CO)C(O)C2O)c(=O)[nH]1.[NH2-].[NH2-].[Pt+2] (stereo not drawn)
inactive: endpoint: mean survival time, dose: 6.25 mg/kg/injection, schedule: Q01DX009 (ip), vehicle: water 102 % of control and 106 % of control | endpoint: mean survival time, dose: 12.5 mg/kg/injection, schedule: Q01DX009 (ip), vehicle: water 106 % of control and 112 % of control | endpoint: mean survival time, dose: 25.0 mg/kg/injection, schedule: Q01DX009 (ip), vehicle: water 113 % of control and 124 % of control | endpoint: mean survival time, dose: 50.0 mg/kg/injection, schedule: Q01DX009 (ip), vehicle: water 113 % of control | endpoint: mean survival time, dose: 100.0 mg/kg/injection, schedule: Q01DX009 (ip), vehicle: water 123 % of control

CC(C)C1=CCC(OC(=O)N=C=Nc2ccccc2)CC1 (stereo not drawn)
inactive: [4] 93 % of control | [1] 90 % of control | [5] 91 % of control | [2] 96 % of control | endpoint: mean survival time, dose: 400.0 mg/kg/injection, schedule: Q01DX001 (ip), vehicle: Klucel (hydroxypropylcellulose) (HPC) 94 % of control | [3] 93 % of control

O=C(/C=C/c1ccccc1)Cc1ccccc1
inactive: [6] 93 % of control | [7] 92 % of control | [8] 98 % of control | [9] 93 % of control | [10] 88 % of control | [11] 93 % of control

NC(N)=NC(N)=Nc1ccc(Cl)c(Cl)c1
inactive: endpoint: mean survival time, dose: 50.0 mg/kg/injection, schedule: Q01DX001 (ip), vehicle: Klucel (hydroxypropylcellulose) (HPC) 94 % of control | [4] 105 % of control | endpoint: mean survival time, dose: 150.0 mg/kg/injection, schedule: Q01DX009 (ip), vehicle: saline 108 % of control | [5] 94 % of control

CN(CC(=O)O)Cc1ccccc1
inactive: endpoint: mean survival time, dose: 50.0 mg/kg/injection, schedule: Q04DX003 (ip), vehicle: saline 102 % of control | [12] 100 % of control | [13] 108 % of control

OC(c1ccccc1)c1ccccn1 (stereo not drawn)
inactive: endpoint: mean survival time, dose: 100.0 mg/kg/injection, schedule: Q04DX003 (ip), vehicle: other 93 % of control | endpoint: mean survival time, dose: 200.0 mg/kg/injection, schedule: Q04DX003 (ip), vehicle: other 98 % of control | endpoint: mean survival time, dose: 400.0 mg/kg/injection, schedule: Q04DX003 (ip), vehicle: other 98 % of control

CCCCCCCCCCCCOCCC(=O)O
inactive: endpoint: mean survival time, dose: 75.0 mg/kg/injection, schedule: Q04DX003 (ip), vehicle: saline 97 % of control | endpoint: mean survival time, dose: 150.0 mg/kg/injection, schedule: Q04DX003 (ip), vehicle: saline 103 % of control | endpoint: mean survival time, dose: 300.0 mg/kg/injection, schedule: Q04DX003 (ip), vehicle: saline 95 % of control

O=[N+]([O-])c1ccc(C(Cl)S(=O)(=O)c2ccccc2)cc1 (stereo not drawn)
inactive: [14] 98 % of control | [15] 92 % of control | endpoint: mean survival time, dose: 400.0 mg/kg/injection, schedule: Q01DX009 (ip), vehicle: Klucel (hydroxypropylcellulose) (HPC) 110 % of control

CCCCCOc1cc(C(C)=O)cc(OC)c1OC(=O)c1cc([N+](=O)[O-])cc([N+](=O)[O-])c1
inactive: [16] 112 % of control | [17] 90 % of control | [18] 93 % of control

O=c1cc(C(Cl)C2OC(CO)C(O)C2O)nc[nH]1 (stereo not drawn)
inactive: endpoint: median survival time, dose: 18.13 mg/kg/injection, schedule: Q01DX005 (ip), vehicle: saline 100 % of control | endpoint: median survival time, dose: 36.25 mg/kg/injection, schedule: Q01DX005 (ip), vehicle: saline 98 % of control | endpoint: median survival time, dose: 72.5 mg/kg/injection, schedule: Q01DX005 (ip), vehicle: saline 101 % of control | endpoint: median survival time, dose: 145.0 mg/kg/injection, schedule: Q01DX005 (ip), vehicle: saline 103 % of control

CC(C)(CBr)COC(=O)Nc1cccc2ccccc12
inactive: endpoint: mean survival time, dose: 12.5 mg/kg/injection, schedule: Q01DX009 (ip), vehicle: saline with Tween-80 91 % of control | endpoint: mean survival time, dose: 25.0 mg/kg/injection, schedule: Q01DX009 (ip), vehicle: saline with Tween-80 91 % of control | endpoint: mean survival time, dose: 50.0 mg/kg/injection, schedule: Q01DX009 (ip), vehicle: saline with Tween-80 95 % of control

CCOC(=O)Nc1cccc(F)c1C
inactive: [1] 105 % of control | [2] 109 % of control | [3] 94 % of control

O=C(O)C1C2c3ccccc3C(C1C(=O)O)[n+]1ccccc12 (stereo not drawn)
inactive: endpoint: mean survival time, dose: 100.0 mg/kg/injection, schedule: Q01DX001 (ip), vehicle: saline 96 % of control | endpoint: mean survival time, dose: 200.0 mg/kg/injection, schedule: Q01DX001 (ip), vehicle: saline 102 % of control | endpoint: mean survival time, dose: 400.0 mg/kg/injection, schedule: Q01DX001 (ip), vehicle: saline 93 % of control

N=C(N)SCSC(=N)N
inactive: [12] 100 % of control | [13] 103 % of control

Cc1ccc(C(=S)NC(=O)Nc2ccccc2)cc1
inactive: [16] 97 % of control | [17] 94 % of control | [18] 97 % of control

NC(N)=NC(=S)Nc1ccccc1
inactive: [16] 118 % of control | [17] 103 % of control | [18] 118 % of control

O=C1C=C/C(=N\N=C2/C=CC(=O)O2)O1
inactive: endpoint: mean survival time, dose: 25.0 mg/kg/injection, schedule: Q04DX002 (ip), vehicle: saline with Tween-80 100 % of control | [19] 91 % of control

c1c(NC2=NCCO2)cc2c3c1CCCN3CCC2
inactive: [7] 92 % of control | [9] 97 % of control

COC(=O)C(NC(=O)CNC(=O)OCc1ccccc1)C(C)C (stereo not drawn) (Cbz-Gly-[ξV]-OMe)
inactive: [7] 100 % of control | [9] 97 % of control | [11] 99 % of control

O=S(=O)(F)c1ccc2nc(-c3cccc(Sc4ccccc4)c3)cc(Cl)c2c1
inactive: [6] 97 % of control | [7] 97 % of control | [8] 93 % of control | [9] 90 % of control | [10] 97 % of control | [11] 96 % of control

Cc1cncn1Cc1ccccc1
inactive: endpoint: mean survival time, dose: 50.0 mg/kg/injection, schedule: Q01DX009 (ip), vehicle: Klucel (hydroxypropylcellulose) (HPC) 94 % of control | [14] 108 % of control | [15] 103 % of control

C=C(NC(=O)CNC(=O)OCc1ccccc1)C(=O)O (Cbz-Gly-[Dha]-OH)
inactive: [19] 102 % of control | [1] 98 % of control | [2] 96 % of control | [3] 94 % of control

C[n+]1ccccc1
inactive: endpoint: mean survival time, dose: 100.0 mg/kg/injection, schedule: Q01DX009 (ip), vehicle: saline 97 % of control | endpoint: mean survival time, dose: 100.0 mg/kg/injection, schedule: Q04DX002 (ip), vehicle: other 96 % of control | endpoint: mean survival time, dose: 200.0 mg/kg/injection, schedule: Q01DX009 (ip), vehicle: saline 101 % of control | endpoint: mean survival time, dose: 200.0 mg/kg/injection, schedule: Q04DX002 (ip), vehicle: other 93 % of control | endpoint: mean survival time, dose: 400.0 mg/kg/injection, schedule: Q01DX009 (ip), vehicle: saline 97 % of control | endpoint: mean survival time, dose: 400.0 mg/kg/injection, schedule: Q04DX002 (ip), vehicle: other 96 % of control

O=C(C=C(C(F)(F)F)C(F)(F)F)c1ccccc1[N+](=O)[O-]
inactive: endpoint: mean survival time, dose: 12.5 mg/kg/injection, schedule: Q04DX003 (ip), vehicle: other 103 % of control | endpoint: mean survival time, dose: 25.0 mg/kg/injection, schedule: Q04DX003 (ip), vehicle: other 109 % of control
